The text below walks through data of patent US20230348953A1, “HIGH THROUGHPUT, FLUORESCENCE-BASED ESTERASE ACTIVITY ASSAY FOR ASSESSING POLYSORBATE DEGRADATION RISK DURING BIOPHARMACEUTICAL DEVELOPMENT” (GENENTECH, INC., priority 2020, published 2023).

One assay concerns PCL, LPLA2, PLBL2. As to the kind of experiment: Substrate specificity, model enzymes. The assay is classed as biochemical. As to conditions: 0.5 mM substrate; PCL and LPLA2 20 ng/ml, PLBL2 400 µg/ml. The method, then:
(§1) The esterase activity assay monitors the conversion of the non-fluorescent substrates, 4-methylumbelliferyl fatty acid esters, to a fluorescent product, MU, through the cleavage of the ester bond. […] The concentration of each buffer component was selected based on in-house assay development studies (data not shown). A 50 mM tris chloride running buffer at pH 8.0 with 0.01% gum arabic was previously used to determine activity rates in a lipase and esterase activity assay (Nalder TD, et al., Biochimie. 2016;128-129:127-132).

Assay [1] has as its system purified protein samples (mAbs 1-3). Kind of assay: Substrate specificity, purified protein samples. The assay is classed as biochemical, CHO and E. coli. As to conditions: 0.5 mM substrate; mAbs 1-3 neat, 150-225 mg/ml. The method, then: as §1
Assay [2] deals with residual hydrolytic HCPs in affinity chromatography purified mAb 6 sample (PS20 degradation). Kind of assay: Orlistat incubation, PS20 degradation by FFA (lauric acid) release in mAb 6 sample. The assay is classed as biochemical, CHO (Chinese Hamster Ovary). To be noted: mAb6 sample, PS20 0.04%, 25° C. 12 days, relative to samples without orlistat. The method, then: (§2) To investigate the effect of orlistat on PS20 degradation, affinity chromatography purified samples of mAb 2 (28 mg/mL), mAb 6 (22 mg/ml) and mAb 7 (22 mg/ml) were incubated for 5 hours at room temperature in the presence of DMSO (10% v/v) with orlistat (0.2 µM and 20 µM) or without orlistat. The samples were then spiked with PS20 (0.04% v/v) and methionine (20 mg/ml) and incubated at 25° C. for 12 days. After incubation, the samples were analyzed for PS20 hydrolytic degradation by quantifying the FFA degradant (lauric acid) as previously described in detail (Cheng Y, et al., J Pharm Sci. 2019;108(9):2880-2886).

The target in the next assay is T1, carboxylesterase 2 (Homo sapiens, UniProt O00748).
T1 sequence (O00748 27-559): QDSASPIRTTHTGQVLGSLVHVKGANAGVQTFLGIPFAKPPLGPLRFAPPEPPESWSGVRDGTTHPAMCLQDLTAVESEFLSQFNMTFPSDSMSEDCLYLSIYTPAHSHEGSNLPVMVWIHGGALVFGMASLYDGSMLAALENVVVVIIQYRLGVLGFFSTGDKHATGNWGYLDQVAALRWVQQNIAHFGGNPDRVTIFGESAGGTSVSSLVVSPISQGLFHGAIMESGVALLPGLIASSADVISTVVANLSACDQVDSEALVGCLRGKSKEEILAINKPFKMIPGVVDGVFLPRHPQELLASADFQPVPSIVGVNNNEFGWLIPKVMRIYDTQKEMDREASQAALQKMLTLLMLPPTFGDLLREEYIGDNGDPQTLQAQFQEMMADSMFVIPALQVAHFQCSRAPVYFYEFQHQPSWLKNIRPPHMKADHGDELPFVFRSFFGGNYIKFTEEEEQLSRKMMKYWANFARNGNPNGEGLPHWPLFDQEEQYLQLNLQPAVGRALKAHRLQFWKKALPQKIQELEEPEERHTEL
As to conditions: cited from earlier work.

Assay [3] has as its system residual HCPs in purified mAb 1 sample. Kind of assay: Orlistat inhibition, esterase activity assay with MU-C8. The assay is classed as biochemical, CHO (Chinese Hamster Ovary). To be noted: orlistat 0.5, 1 and 10 µM vs DMSO control; mAb 1 25 mg/ml during incubation; MU-C8 substrate. Here is the method:
(§3) The esterase activity assay monitors the conversion of the non-fluorescent substrates, 4-methylumbelliferyl fatty acid esters, to a fluorescent product, MU, through the cleavage of the ester bond. The reaction mixture contained 80 µl of reaction buffer (150 mM tris chloride pH 8.0, 0.25% (w/v) Triton X-100 and 0.125% (w/v) gum arabic), 10 µl substrate at 1 mM final concentration, and 10 µl model enzyme solution or protein samples. The concentration of each buffer component was selected based on in-house assay development studies (data not shown). […]
(§4) Model enzymes were diluted in water to the desired concentrations. […] The reaction was set up in 96-well plates and the increase of fluorescence signal (using excitation and emission wavelengths of 355 nm and 460 nm, respectively) was monitored every 10 minutes by incubating the reaction plates for two hours at 37° C. in a plate reader. Rate of production of MU, representing the total hydrolytic activity (from enzymatic and non-enzymatic hydrolysis), was derived from the slope of the fluorescence time course from 30 minutes to 120 minutes, and is denoted by the reaction raw rate (kraw). […]
(§5) Orlistat stock solution in DMSO was freshly prepared for each inhibition reaction. […] Rates were adjusted for background fluorescence as measured by the enzyme blank (negative control) wells. […]

The subject of assay [4] is residual hydrolytic HCPs in affinity chromatography purified mAb 7 sample (PS20 degradation). Kind of assay: Orlistat incubation, PS20 degradation by FFA (lauric acid) release in mAb 7 sample. It counts as biochemical, CHO (Chinese Hamster Ovary). As to conditions: mAb7 sample, PS20 0.04%, 25° C. 12 days, relative to samples without orlistat. Here is the method:
as §2

For assay [5], the target named is T2, carboxylesterase 1 (CES1) (Homo sapiens, UniProt P23141).
T2 sequence (P23141 18-567): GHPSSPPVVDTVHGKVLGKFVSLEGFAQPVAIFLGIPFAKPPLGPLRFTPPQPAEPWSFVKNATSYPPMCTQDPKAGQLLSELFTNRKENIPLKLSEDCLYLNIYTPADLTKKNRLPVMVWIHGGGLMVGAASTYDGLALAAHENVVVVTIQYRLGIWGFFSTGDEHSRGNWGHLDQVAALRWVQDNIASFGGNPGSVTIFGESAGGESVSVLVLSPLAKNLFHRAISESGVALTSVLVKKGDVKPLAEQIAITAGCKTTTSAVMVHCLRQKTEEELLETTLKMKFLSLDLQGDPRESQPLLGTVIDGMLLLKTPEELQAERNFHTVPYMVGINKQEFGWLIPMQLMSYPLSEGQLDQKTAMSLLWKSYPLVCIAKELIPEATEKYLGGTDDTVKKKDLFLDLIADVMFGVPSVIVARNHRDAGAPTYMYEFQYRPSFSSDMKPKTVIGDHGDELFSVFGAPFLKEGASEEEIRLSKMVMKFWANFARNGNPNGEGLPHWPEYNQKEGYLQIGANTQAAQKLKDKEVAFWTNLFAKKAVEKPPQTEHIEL
To be noted: cited from earlier work.

For assay [6], the system named is residual hydrolytic HCPs in affinity chromatography purified mAb 2 sample (PS20 degradation). Kind of assay: Orlistat incubation, PS20 degradation by FFA (lauric acid) release in mAb 2 sample. It counts as biochemical, CHO (Chinese Hamster Ovary). To be noted: mAb2 sample, PS20 0.04%, 25° C. 12 days, relative to samples without orlistat. Here is the method:
as §2

Assay [7] addresses T3, Pseudomonas cepacia lipase (PCL) (Burkholderia cepacia, UniProt P22088).
T3 construct: purchased Sigma Aldrich
As to the kind of experiment: Orlistat inhibition, esterase activity assay with MU-C8. As to conditions: orlistat 0.5, 1 and 10 µM; PCL 50 ng/ml; MU-C8 substrate. The assay is classed as biochemical. The method, then: as §3, §4, §5

The subject of assay [8] is lysosomal phospholipase A2 (LPLA2). Described as above. The assay is classed as biochemical. As to conditions: orlistat 0.5, 1 and 10 µM; LPLA2 50 ng/ml; MU-C8 substrate. The method, then: as §3, §4, §5

Structures are written as SMILES. “Also recorded” adds a separate entry of the source.

T3 sequence (P22088 45-364): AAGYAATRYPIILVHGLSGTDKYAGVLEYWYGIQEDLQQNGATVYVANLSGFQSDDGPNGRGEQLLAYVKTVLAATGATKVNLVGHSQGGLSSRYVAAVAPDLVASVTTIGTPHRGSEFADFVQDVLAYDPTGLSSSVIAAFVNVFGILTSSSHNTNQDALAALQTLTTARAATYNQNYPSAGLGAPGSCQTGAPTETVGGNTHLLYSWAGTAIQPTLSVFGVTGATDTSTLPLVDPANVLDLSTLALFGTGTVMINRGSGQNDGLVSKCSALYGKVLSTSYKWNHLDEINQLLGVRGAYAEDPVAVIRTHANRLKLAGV

On to `CCCCCCCC(=O)Oc1ccc2c(C)cc(=O)oc2c1` [MU-C8, 4-methylumbelliferyl caprylate], for which, in the assay on PCL, LPLA2, PLBL2, the “hydrolysis of MU ester by model enzymes” value is “hydrolyzed”. For the same molecule, in assay [1], the “activity of purified protein samples towards MU ester substrate” value is “most sensitivity”.

Consider `CCCCCCCC/C=C\CCCCCCCC(=O)Oc1ccc2c(C)cc(=O)oc2c1` [MU-C18:1, 4-methylumbelliferyl oleate], for which the “activity of purified protein samples towards MU ester substrate” value in assay [1] was “did not show activity”.

For the molecule `CCCCCCCCCC(=O)Oc1ccc2c(C)cc(=O)oc2c1` [MU-C10, 4-methylumbelliferyl decanoate], the “hydrolysis of MU ester by model enzymes” value in the assay with PCL, LPLA2, PLBL2 was “hydrolyzed”.

As for `CCCCCCCCCCC[C@@H](C[C@@H]1OC(=O)[C@H]1CCCCCC)OC(=O)[C@H](CC(C)C)NC=O` [orlistat, (S)-2-formylamino-4-methyl-pentanoic acid (S)-1-[[(2S,3S)-3-hexyl-4-oxo-2-oxetanyl]methyl]-dodecyl ester], the “Decrease in FFA Release Rate (%)” value was found to be 67% in assay [2] (orlistat 0.2 µM); 91% in assay [2] (orlistat 20 µM); 39% in [4] (orlistat 0.2 µM); 74% in assay [4] (orlistat 20 µM); 31% in assay [6] (orlistat 0.2 µM); 63% in assay [6] (orlistat 20 µM). Moreover, the “inhibition of carboxylesterase 2” value at carboxylesterase 2 was “significantly inhibited”. The “reduction in esterase activity rate” value in [3] is “dose-dependent reduction; also recorded: did not completely inhibit”. The “inhibition of carboxylesterase 1” value in assay [5] was “lack of orlistat potency”. For the same molecule, the “inhibition of esterase activity” value in [7] and in [8] was “complete inhibition” throughout.
